According to ChEMBL document CHEMBL1201862, “PubChem BioAssay data set” (2004):
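Five concentrations, 48 hours, 96-well plates. At the GI50, growth is halved.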 Calls of active or inactive are those of the source. Rule as the data show it: active = GI50 up to about 1.1 µM and inactive = higher. Non-standard residues stand in square brackets, D forms with d. Residues, ends and D or L forms follow the SMILES beside them. ξ: configuration not given here. *: point of attachment. Cbz = O=C(OCc1ccccc1)*; ξK = NCCCCC(N)C(=O)O

Key:
Assay in all cases: NCI-60 cell line screen, 48 h
SN12C = test system: SN12C
NCI-H522 = test system: NCI-H522
HCT-116 = test system: HCT-116
EKVX = test system: EKVX
DMS-114 = test system: DMS-114
SK-OV-3 = test system: SK-OV-3
SF-295 = test system: SF-295
SW-620 = test system: SW-620
HT-29 = test system: HT-29
SK-MEL-28 = test system: SK-MEL-28
M14 = test system: M14
OVCAR-8 = test system: OVCAR-8
HCC 2998 = test system: HCC 2998
KM12 = test system: KM12
786-0 = test system: 786-0
K562 = test system: K562
A498 = test system: A498
PC-3 = test system: PC-3
MCF7 = test system: MCF7
SK-MEL-2 = test system: SK-MEL-2

Structure (SMILES) | GI50 (SN12C) | GI50 (NCI-H522) | GI50 (HCT-116) | GI50 (EKVX) | GI50 (DMS-114) | GI50 (SK-OV-3) | GI50 (SF-295) | GI50 (SW-620) | GI50 (HT-29) | GI50 (SK-MEL-28) | GI50 (M14) | GI50 (OVCAR-8) | GI50 (HCC 2998) | GI50 (KM12) | GI50 (786-0) | GI50 (K562) | GI50 (A498) | GI50 (PC-3) | GI50 (MCF7) | GI50 (SK-MEL-2)
COC(=O)C(=O)C(C(=O)C(=O)Nc1cc([N+](=O)[O-])ccc1C#N)c1nc2ccccc2nc1O (configuration not stated) | > 100 µM (inactive) | > 100 µM (inactive) | > 100 µM (inactive) | 35.5 µM (inactive) | > 100 µM (inactive) | > 100 µM (inactive) | > 100 µM (inactive) | > 100 µM (inactive) | > 100 µM (inactive) | > 100 µM (inactive) | > 100 µM (inactive) | > 100 µM (inactive) | > 100 µM (inactive) | > 100 µM (inactive) | > 100 µM (inactive) | – | – | – | – | –
Cc1ccc(/C=C2\CCCCC2=O)cc1 | 97.5 µM (inactive) | – | 43.4 µM (inactive) | > 100 µM (inactive) | 43.6 µM (inactive) | > 100 µM (inactive) | > 100 µM (inactive) | > 100 µM (inactive) | 46.6 µM (inactive) | > 100 µM (inactive) | 49.9 µM (inactive) | > 100 µM (inactive) | – | – | > 100 µM (inactive) | 25.7 µM (inactive) | > 100 µM (inactive) | – | – | –
COc1ccc(C(=O)C#Cc2cnc(OC)nc2OC)cc1 | 1.19 µM (inactive) | 1.39 µM (inactive) | 1.32 µM (inactive) | 1.83 µM (inactive) | – | 14.1 µM (inactive) | 12.4 µM (inactive) | 0.571 µM (active) | 1.22 µM (inactive) | 1.61 µM (inactive) | 1.36 µM (inactive) | 1.56 µM (inactive) | 1.84 µM (inactive) | 2.68 µM (inactive) | 1.94 µM (inactive) | 0.367 µM (active) | 18.7 µM (inactive) | 1.26 µM (inactive) | 0.778 µM (active) | 1.42 µM (inactive)
Nc1ccccc1-n1c2c(c3ccccc3c1=O)C(=O)c1ccccc1-2 | 42 µM (inactive) | 6.58 µM (inactive) | 20.8 µM (inactive) | 27.6 µM (inactive) | – | 6.98 µM (inactive) | 9.1 µM (inactive) | 14.5 µM (inactive) | 18.4 µM (inactive) | 36.5 µM (inactive) | 61.7 µM (inactive) | 14.5 µM (inactive) | 21.8 µM (inactive) | 71.6 µM (inactive) | 7.62 µM (inactive) | > 100 µM (inactive) | 54.5 µM (inactive) | 16.1 µM (inactive) | 13.3 µM (inactive) | 19.9 µM (inactive)
COC(=O)NNC(=O)OC.COC(=O)Nc1ccccc1NC(=O)OC.COC(=O)Oc1nn(C(=O)OC)c(=O)c2ccccc12 | > 100 µM (inactive) | > 100 µM (inactive) | > 100 µM (inactive) | > 100 µM (inactive) | – | > 100 µM (inactive) | > 100 µM (inactive) | > 100 µM (inactive) | > 100 µM (inactive) | > 100 µM (inactive) | > 100 µM (inactive) | > 100 µM (inactive) | > 100 µM (inactive) | > 100 µM (inactive) | > 100 µM (inactive) | > 100 µM (inactive) | 39.1 µM (inactive) | > 100 µM (inactive) | > 100 µM (inactive) | > 100 µM (inactive)
O/N=C1/Nc2cc(Cl)ccc2C(=S)N2CSCC12 (configuration not stated) | > 100 µM (inactive) | > 100 µM (inactive) | > 100 µM (inactive) | > 100 µM (inactive) | – | > 100 µM (inactive) | > 100 µM (inactive) | > 100 µM (inactive) | > 100 µM (inactive) | > 100 µM (inactive) | > 100 µM (inactive) | > 100 µM (inactive) | > 100 µM (inactive) | > 100 µM (inactive) | > 100 µM (inactive) | 87.3 µM (inactive) | > 100 µM (inactive) | > 100 µM (inactive) | > 100 µM (inactive) | > 100 µM (inactive)
CCCOP1(=O)C=C(C)C(Cl)=C(C)C1 (configuration not stated) | 20.2 µM (inactive) | 15 µM (inactive) | 18 µM (inactive) | 74.3 µM (inactive) | 19.7 µM (inactive) | 38.3 µM (inactive) | 25.2 µM (inactive) | 17.1 µM (inactive) | 22.1 µM (inactive) | 18.3 µM (inactive) | 15.3 µM (inactive) | 27 µM (inactive) | 54.7 µM (inactive) | 19.1 µM (inactive) | 16.9 µM (inactive) | 24.7 µM (inactive) | – | – | – | 6.11 µM (inactive)
Cc1c2n(c(=O)[nH]c1=O)C1OC(CO)C(N=[N+]=[N-])C1O2 (configuration not stated) | > 100 µM (inactive) | 90.6 µM (inactive) | > 100 µM (inactive) | 55.3 µM (inactive) | > 100 µM (inactive) | > 100 µM (inactive) | > 100 µM (inactive) | > 100 µM (inactive) | > 100 µM (inactive) | > 100 µM (inactive) | – | > 100 µM (inactive) | – | > 100 µM (inactive) | > 100 µM (inactive) | 92.5 µM (inactive) | > 100 µM (inactive) | – | – | > 100 µM (inactive)
OCCNCCOc1ccc(/C(=C(/Cl)c2ccccc2)c2ccccc2)cc1 | 5.3 µM (inactive) | 14 µM (inactive) | 4.99 µM (inactive) | 14.7 µM (inactive) | 15.2 µM (inactive) | 3 µM (inactive) | 15.2 µM (inactive) | 4.44 µM (inactive) | 1.11 µM (active) | 1.14 µM (inactive) | 1.87 µM (inactive) | 13.5 µM (inactive) | – | 0.544 µM (active) | 9.68 µM (inactive) | 2.85 µM (inactive) | – | – | – | 13.2 µM (inactive)
CC(C)N(CCn1c2c3ccccc3ccc2c2oc(=O)c3ccccc3c21)C(C)C | > 100 µM (inactive) | > 100 µM (inactive) | > 100 µM (inactive) | > 100 µM (inactive) | > 100 µM (inactive) | > 100 µM (inactive) | > 52.2 µM (inactive) | > 100 µM (inactive) | > 100 µM (inactive) | > 100 µM (inactive) | > 100 µM (inactive) | > 48.6 µM (inactive) | – | > 100 µM (inactive) | 50.4 µM (inactive) | > 100 µM (inactive) | > 100 µM (inactive) | – | – | > 100 µM (inactive)
O=c1c2ccccc2c2nc3ccccc3nc2n1C1CCCCC1 | > 100 µM (inactive) | > 100 µM (inactive) | > 100 µM (inactive) | > 100 µM (inactive) | > 100 µM (inactive) | > 100 µM (inactive) | 95.3 µM (inactive) | > 100 µM (inactive) | > 100 µM (inactive) | > 100 µM (inactive) | – | 86.3 µM (inactive) | > 100 µM (inactive) | > 100 µM (inactive) | > 100 µM (inactive) | > 100 µM (inactive) | – | – | – | > 100 µM (inactive)
CC(C)[Si](OC1=CCC[C@H]2NC(=O)[C@@H](Cc3ccccc3)[C@@]12C)(C(C)C)C(C)C | 3.23 µM (inactive) | 3.46 µM (inactive) | 3.6 µM (inactive) | 3.74 µM (inactive) | – | 5.93 µM (inactive) | 4.85 µM (inactive) | 2.72 µM (inactive) | 3.43 µM (inactive) | 4.11 µM (inactive) | 11.2 µM (inactive) | 11.4 µM (inactive) | 2.18 µM (inactive) | 3.84 µM (inactive) | 3.94 µM (inactive) | 3.2 µM (inactive) | 5.79 µM (inactive) | 3.37 µM (inactive) | 3.55 µM (inactive) | 14.2 µM (inactive)
N#CC(C#N)=C1CCCCc2ccc([N+](=O)[O-])cc21 | 52.6 µM (inactive) | 19.4 µM (inactive) | 24.3 µM (inactive) | 46.6 µM (inactive) | – | > 100 µM (inactive) | > 100 µM (inactive) | 41.9 µM (inactive) | 78.9 µM (inactive) | > 100 µM (inactive) | > 100 µM (inactive) | > 100 µM (inactive) | > 100 µM (inactive) | > 100 µM (inactive) | 17.4 µM (inactive) | 39.4 µM (inactive) | 78.3 µM (inactive) | 55.3 µM (inactive) | 38.7 µM (inactive) | > 100 µM (inactive)
CCCC1C(CC)C(NC)C(C#N)(C#N)C1(C#N)C#N (configuration not stated) | 15.1 µM (inactive) | 13.9 µM (inactive) | 15.1 µM (inactive) | 25.2 µM (inactive) | – | > 100 µM (inactive) | 17.2 µM (inactive) | 36.8 µM (inactive) | 13.6 µM (inactive) | 30.2 µM (inactive) | 35.6 µM (inactive) | 20.7 µM (inactive) | 18 µM (inactive) | 16.4 µM (inactive) | 15.4 µM (inactive) | 23.7 µM (inactive) | 15.6 µM (inactive) | 18.1 µM (inactive) | 23.5 µM (inactive) | 18.9 µM (inactive)
Cc1cc(C)c2c(O)cc(-c3ccc(Cl)cc3)nc2n1 | > 33 µM (inactive) | 46.8 µM (inactive) | 24.2 µM (inactive) | > 56.2 µM (inactive) | – | 84.9 µM (inactive) | 28.2 µM (inactive) | 26.6 µM (inactive) | 19.9 µM (inactive) | 28.3 µM (inactive) | 25.7 µM (inactive) | > 100 µM (inactive) | 27.6 µM (inactive) | 16.3 µM (inactive) | > 46.5 µM (inactive) | 9.79 µM (inactive) | 32.4 µM (inactive) | 14.9 µM (inactive) | 27.2 µM (inactive) | 47 µM (inactive)
NCCCCC(NC(=O)OCc1ccccc1)C(=O)NCC(N)=O (configuration not stated) (Cbz-[ξK]-Gly-NH2) | > 100 µM (inactive) | > 100 µM (inactive) | > 100 µM (inactive) | > 100 µM (inactive) | – | > 100 µM (inactive) | > 100 µM (inactive) | > 100 µM (inactive) | > 100 µM (inactive) | > 100 µM (inactive) | > 100 µM (inactive) | > 100 µM (inactive) | > 100 µM (inactive) | > 100 µM (inactive) | > 100 µM (inactive) | > 100 µM (inactive) | > 100 µM (inactive) | > 100 µM (inactive) | > 100 µM (inactive) | > 100 µM (inactive)
